From patent publication US8633184B2, “Benzoazepin-oxy-acetic acid derivatives as PPAR-delta agonists used for the increase of HDL-C, lower LDL-C and lower cholesterol” (Janssen Pharmaceutica N.V., priority 2006, dated 2014)
Values joined by “and” are separate entries in the source; they are usually repeats but may differ in a detail not shown here. Equal values may be shown once.

Legend:
Assay type in all cases: cell-based
Conditions in all cases: 18-24 hrs
PPARγ = biological target: T1, PPARγ (Homo sapiens, UniProt P37231); assay: Transfection assay, GAL4-PPARγ LBD luciferase reporter in HEK293 cells
T1 construct: expressed in transfected cells; host or cells: HEK293
T1 sequence (P37231 238-503 limits assumed): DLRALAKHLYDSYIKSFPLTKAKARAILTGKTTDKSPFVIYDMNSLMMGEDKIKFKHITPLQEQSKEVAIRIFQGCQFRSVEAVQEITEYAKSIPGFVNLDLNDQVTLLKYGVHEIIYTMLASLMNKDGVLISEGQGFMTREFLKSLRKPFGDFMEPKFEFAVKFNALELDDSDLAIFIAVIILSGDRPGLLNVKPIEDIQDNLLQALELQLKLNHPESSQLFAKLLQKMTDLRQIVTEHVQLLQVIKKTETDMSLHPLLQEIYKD
Protocol: (§1) HEK293 cells were grown in DMEM/F12 medium supplemented with 10% FBS and glutamine (Invitrogen) and incubated in a 5% CO2 incubator at 37° C. The cells were co-transfected using DMRIE-C reagent (Invitrogen) in serum free medium (Opti-MEM, Invitrogen) with two mammalian expression plasmids, one containing the DNA sequence coding for the ligand binding domains of either PPARα, γ or δ fused to the yeast GAL4 DNA binding domain and the other containing the promoter sequence of the yeast GAL4 (UAS) fused to the firefly luciferase cDNA reporter. The next day, the medium was changed to DMEM/F12 medium supplemented with 5% charcoal treated serum (Hyclone) and glutamine. After 6 hrs the cells were trypsinized and seeded at a density of 50,000 cells/well into 96 well plates and incubated overnight as above. The cells were then treated with test compounds or vehicle and incubated for 18-24 hrs as above. Luciferase reporter activity was measured using the Steady-Glo Luciferase Assay Kit from Promega. DMRIE-C Reagent was purchased from GIBCO Cat. No. 10459-014. OPTI-MEM I Reduced Serum Medium was purchased from GIBCO (Cat. No. 31985). Steady-Glo Luciferase Assay Kit was purchased from Promega (Part #E254B).
(§2) A variety of example compounds have been made and tested, with a range of in vitro results. Below, in Table 2, are representative compounds and data; in some cases, where multiple EC50's are shown, multiple measurements were taken. Naturally, different compounds in Formula (I) may have not activities identical to any one compound below.

PPARδ = biological target: T2, PPARδ (Homo sapiens, UniProt Q03181); assay: Transfection assay, GAL4-PPARδ LBD luciferase reporter in HEK293 cells
T2 construct: expressed in transfected cells; host or cells: HEK293
T2 sequence (Q03181 211-439 limits assumed): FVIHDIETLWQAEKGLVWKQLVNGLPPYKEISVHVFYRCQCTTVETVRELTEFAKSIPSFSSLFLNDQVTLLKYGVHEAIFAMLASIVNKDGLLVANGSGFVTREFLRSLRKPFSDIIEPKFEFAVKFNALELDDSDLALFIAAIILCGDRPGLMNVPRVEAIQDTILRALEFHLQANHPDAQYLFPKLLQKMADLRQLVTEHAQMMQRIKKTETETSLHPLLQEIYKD
Protocol: as §1, §2

PPARα = biological target: T3, PPARα (Homo sapiens, UniProt Q07869); assay: Transfection assay, GAL4-PPARα LBD luciferase reporter in HEK293 cells
T3 construct: expressed in transfected cells; host or cells: HEK293
T3 sequence (Q07869 239-466 limits assumed): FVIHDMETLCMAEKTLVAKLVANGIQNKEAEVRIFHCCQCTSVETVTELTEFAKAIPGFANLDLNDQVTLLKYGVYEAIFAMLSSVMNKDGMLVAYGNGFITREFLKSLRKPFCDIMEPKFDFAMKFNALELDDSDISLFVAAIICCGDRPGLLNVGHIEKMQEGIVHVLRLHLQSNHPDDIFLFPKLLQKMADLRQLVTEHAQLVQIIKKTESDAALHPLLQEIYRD
Protocol: as §1, §2

EC50 (PPARγ) [nM]	EC50 (PPARδ)	EC50 (PPARα)	Compound
> 3000	231 nM	> 3000 nM	Cc1nc(-c2ccc(C(F)(F)F)cc2)oc1CN1CCc2ccc(OC(C)(C)C(=O)O)cc2CC1 [compound 19]
> 3000	169 nM	> 3000 nM	O=C(O)COc1ccc2c(c1)CCN(Cc1ccc(-c3ccc(Cl)cc3)o1)CC2 [compound 35]
> 3000	0.9 nM	> 3000 nM	CCC(c1ccc(-c2ccc(C(F)(F)F)cc2)s1)N1CCc2ccc(OCC(=O)O)cc2CC1 (stereo not drawn) [compound 30]
> 3000	148 nM and 167 nM	> 3000 nM	O=C(O)COc1ccc2c(c1)CCN(Cc1ccc(-c3ccc(Cl)cc3Cl)o1)CC2 [compound 33]
> 3000	> 1000 nM	> 3000 nM	O=C(O)COc1ccc2c(c1)CCN(Cc1cncc(-c3ccc(C(F)(F)F)cc3)n1)CC2 [compound 42]
> 3000	> 1000 nM	> 3000 nM	O=C(O)COc1ccc2c(c1)CCN(Cc1cnn(-c3ccc(C(F)(F)F)cc3)c1)CC2 [compound 20]
> 1000	18 nM	31 nM	O=C(O)C1(Oc2ccc3c(c2)CCN(Cc2ccc(-c4ccc(C(F)(F)F)cc4)o2)CC3)CC1 [compound 38]
> 3000	27.1 nM and 22 nM	> 1000 nM	O=C(O)COc1ccc2c(c1)CCN(Cc1cnc(-c3ccc(C(F)(F)F)cc3)s1)CC2 [compound 24]
> 3000	136 nM	> 1000 nM	O=C(O)COc1ccc2c(c1)CCN(Cc1cc(-c3ccc(C(F)(F)F)cc3)on1)CC2 [compound 11]
> 3000	439 nM	> 3000 nM	O=C(O)COc1ccc2c(c1)CCN(Cc1csc(-c3ccc(C(F)(F)F)cc3)n1)CC2 [compound 17]
> 3000	1.8 nM	> 3000 nM	CC(c1ccc(-c2ccc(C(F)(F)F)cc2)o1)N1CCc2ccc(OCC(=O)O)cc2CC1 (single isomer, unassigned) [28a]
> 3000	375 nM	> 3000 nM	Cc1c(-c2ccc(C(F)(F)F)cc2)csc1CN1CCc2ccc(OC(C)(C)C(=O)O)cc2CC1 [compound 16]
> 3000	12.6 nM and 13.9 nM	> 3000 nM	CC(c1ccc(-c2ccc(C(F)(F)F)cc2)s1)N1CCc2ccc(OCC(=O)O)cc2CC1 (single isomer, unassigned) [27b]
> 3000	15.8 nM	> 3000 nM	CC1CN(Cc2ccc(-c3ccc(C(F)(F)F)cc3)o2)CCc2ccc(OCC(=O)O)cc21 (stereo not drawn) [compound 26]
> 3000	34.1 nM and 66.6 nM	546 nM and 758 nM	O=C(O)COc1ccc2c(c1)CCN(Cc1cc(-c3ccc(C(F)(F)F)cc3)ns1)CC2 [compound 1]
> 3000	312 nM	> 1000 nM	O=C(O)COc1ccc2c(c1)CCN(Cc1ccc(-c3ccc(C(F)(F)F)cc3)nc1)CC2 [compound 46]
> 3000	398 nM	> 3000 nM	Cc1cc(-c2ccc(C(F)(F)F)cc2)sc1CN1CCc2ccc(OC(C)(C)C(=O)O)cc2CC1 [compound 14]
> 3000	74.2 nM and 70.9 nM	> 3000 nM	O=C(O)COc1ccc2c(c1)CCN(Cc1ccc(-c3ccc(C(F)(F)F)cc3)o1)CC2 [compound 9]
> 3000	> 1000 nM	> 3000 nM	COc1ccc(-c2ccc(CN3CCc4ccc(OCC(=O)O)cc4CC3)o2)cc1 [compound 44]
> 3000	122 nM	> 1000 nM	CC(C)(Oc1ccc2c(c1)CCN(Cc1cc(-c3ccc(C(F)(F)F)cc3)on1)CC2)C(=O)O [compound 12]
> 3000	85.9 nM and 123 nM	> 1000 nM	CC(C)(Oc1ccc2c(c1)CCN(Cc1ccc(-c3ccc(C(F)(F)F)cc3)s1)CC2)C(=O)O [compound 8]
> 3000	95.2 nM	> 3000 nM	CC(C)(Oc1ccc2c(c1)CCN(Cc1nc(-c3ccc(C(F)(F)F)cc3)ns1)CC2)C(=O)O [compound 4]
